From US20150233925A1, “Assays and Cell-Based Tests Using a Receptor Na/K-ATPase/Src Complex and Uses Thereof” (The University of Toledo, priority 2012, published 2015)
“Also recorded” adds a separate entry of the source. Blank lines part the entries; values can stand above or below the molecule they belong to.

Legend:
[1] = target: T1, Na/K-ATPase/Src receptor complex (Sus scrofa, UniProt P05024); assay: FRET based high throughput screen for agonists and antagonists; format: biochemical, pig; conditions: screen with ouabain plus compounds, followed by cell-based analyses
T1 construct: The α1 Na/K-ATPase was purified from pig kidney; tissue Upstate Biotechnology (Src only); host or cells: pig kidney (Na/K-ATPase)
Source text: Referring now to FIGS. 2A and 2B, there are shown schematic illustrations of a FRET based high throughput assay for agonist and antagonist. […] A pathway-based approach is useful to screen for agonists of Na/K-ATPase/Src receptor targets. Agonist can interact with Na/K-ATPase resulting Src phosphorylation. This active Src transfers the γ-phosphate of ATP to a single tyrosine residue in the synthetic peptide substrate. Then, a site specific protease recognizes and cleaves non-phosphorylated peptides. […] Cleavage disrupts FRET on the peptide, whereas uncleaved, phosphorylated peptides maintain FRET.
This assay is similar as the agonist screening. For example, in the presence of ouabain, antagonist can reduce ouabain induced peptide substrate phosphorylation.
(§1) In one example, the FRET-based in vitro high throughput assay utilizes the in vitro reconstitution of receptor Na/K-ATPase and Src, and a peptide Src substrate-based FRET assay. […] To reconstitute the receptor α1 Na/K-ATPase/Src complex, purified pig kidney Na/K-ATPase was mixed with purified recombinant Src. This receptor complex has an inhibited Src activity. The binding of agonists to the receptor complex releases the inhibited Src and result in an increase in Src activity, which is measured by a peptide-based FRET analysis (FIG. 2A, FIG. 2B). To screen the agonist of receptor Na/K-ATPase/Src complex, the reconstituted receptor is exposed to compounds, and then measured for Src activation using the peptide-based FRET assay.
The chemical library used for screening in the present study contained 100 structurally diverse, drug-like, naturally occurring organic compounds or their semisynthetic derivatives. Stock compounds were prepared at 10 mM in DMSO. The specific activities of Na/K-ATPase of various kidney preparations were in the range of 900-1,200 μmol/mg/h. The high throughput screen was conducted in a Corning 384-well low-volume assay plates at room temperature.
The first step was Kinase Reaction with the final reaction volume of 10 μl. The purified Src (4.5 U) was incubated with 2 μg of the purified Na/K-ATPase in phosphate-buffered saline (PBS) for 5 min. Afterward, the Na/K-ATPase/Src complex was exposed to compounds to screen for agonist or ouabain 10 μM plus compounds to screen antagonists for 10 min. Then, the Src kinase substrate Tyr 2 peptide or phosphor-peptide (control) was added. The reaction was initiated by addition of 2 mM ATP/Mg^2+, continued for 60 min.
The second step was Development Reaction. Each well was added 5 μl Development Solution, then mix the plate and incubate another 60 min. The assay was stopped by adding 5 μl stop reagent and then fluorescent signals were measured.

ERK in LLC-PK1 cells = assay: Western blot of activated-ERK in LLC-PK1 cells; format: cell-based, pig; conditions: pretreated 30 min, ouabain 1 nM for 1 h
Procedure: LLC-PK1 cells were serum-starved overnight, washed and pretreated with Ferulic acid (A) for 30 min. Both control and compounds-pretreated cells were exposed to ouabain (1 nM) for 1 h. Cell lysates were collected, separated by SDS-PAGE and probed for activated-ERK and total-ERK. A representative western blot is shown. The quantitative data from three to four separate experiments were presented. (***, p<0.001 vs control; #, p<0.05 vs Oua).
The experiments were done as in FIG. 6D. The quantitative data from four separate experiments were presented. (***, p<0.001 vs control; ## #, p<0.001 vs Oua).
(§2) Cells were washed with PBS and solubilized in modified ice-cold radioimmune precipitation assay buffer, and subjected to Western blot analysis. Protein signals were detected using an ECL kit and quantified using ImageJ.

[2] = system: ouabain-induced signal transduction in cultured cells; assay: Ouabain-induced signal transduction in cultured cells; format: cell-based
Procedure: (§3) To assay for receptor antagonist, the reconstituted receptor was exposed to compounds in the presence and absence of an agonist (ouabain) and then assessed whether the compounds could antagonize ouabain-induced activation of Src. To verify that they are specific antagonists of receptor Na/K-ATPase/Src complex, their effects on ouabain-, EGF- and dopamine-induced signal transduction was measured in LLC-PK1 and PY-17 cells.

[3] = system: Src in P11 cells (LLC-PK1 transfected with empty vector); assay: Cell-based Src activation assay, control cell P11; design: species or system pig
Procedure: (§4) To confirm that these agonists activate Src through the Na/K-ATPase, three complementary cell-based assays were established. One assay uses a LLC-PK1 derived al knockdown PY-17 cell, a control cell P11 (LLC-PK1transfected with empty vector), and another control cell AAC-19 (rat al-rescued PY-17 cells).
(§5) Referring now to FIG. 3A, cells were treated with indicated concentration of ouabain for 5 min, and total cell lysates were analyzed for pY418 and total Src. […] Values are mean±S.E. of at least three independent experiments. * p<0.05 compared with each control.
as §2

[4] = system: Src in AAC-19 cells (rat α1-rescued PY-17 cells); assay: Cell-based Src activation assay, control cell AAC-19
Procedure: as §4, §5, §2

[5] = system: Src in PY-17 cells (LLC-PK1 derived α1 knockdown); assay: Cell-based Src activation assay, α1 knockdown PY-17 cells; design: species or system pig; conditions: Na/K-ATPase knockdown
Procedure: as §4
(§6) The second assay uses another pair of cell lines, LL-A416P-4 and LL-A420P-20. These cells were rat α1 A416P and A420P mutant-rescued PY-17 cells.
as §5, §2

[6] = system: Src in LL-A416P-4 cells (rat α1 A416P mutant-rescued PY-17 cells); assay: Cell-based Src activation assay, LL-A416P-4 cells; conditions: ouabain 10 min
Procedure: as §6
as §5, with “Cell (LL-A416P-4 and LL-A420P-20) based assay for agonist (ouabain): Cells were” for “Referring now to FIG. 3A, cells were”, “for 10” for “for 5”
as §2

[7] = system: Src in LY-I279A-3 cells (I279A mutant Na/K-ATPase); assay: Cell-based Src activation assay, LY-I279A-3 cells; conditions: ouabain 10 min
Procedure: (§7) The third assay uses other two cell lines (LY-I279A-3, LY-F286A-19), where the expressed I279A or F286A mutant Na/K-ATPase was defective in conformational transition (I279A and F286A mutants were defective in E1 to E2 and E2 to E1 conformational transition, respectively). […] Cell (LY-I279A-3 and LY-F286A-19) based Assay for agonist (ouabain): Cells were treated with indicated concentration of ouabain for 10 min, and total cell lysates were analyzed for pY418 and total Src. […] Values are mean±S.E. of at least three independent experiments. * p<0.05 compared with each control.
as §2

[8] = system: Src in LY-F286A-19 cells (F286A mutant Na/K-ATPase); assay: Cell-based Src activation assay, LY-F286A-19 cells; conditions: ouabain 10 min
Procedure: as §7, §2

[9] = target: T1, Na/K-ATPase/Src receptor complex; assay: Reconstituted Na/K-ATPase/Src receptor complex, Src pY418 by Western blot (kinase activity assay of Src); format: biochemical, pig; conditions: ouabain 1 μM, 100 μM vanade to inactivate ATPase activity
Procedure: as §1
Phosphorylation of Src pY 418, as an indicator of Src activation, was measured by Western blot. Ouabain was used at 1 μM and the assay was done in the presence of 100 μM vanade to inactivate ATPase activity. Values are mean±S.E. of at least three independent experiments. * p<0.05 compared with control. ** p<0.01 compared with control.
as §3
To determine whether the compound affect the Na/K-ATPase/Src receptor activity, the compounds was incubated with the purified Src (4.5 U) and 1 μg Na/K-ATPase for 15 min at 37° C. Afterward, 2 mM ATP/Mg^2+ was added. The reaction continued for 15 min at 37° C. and was stopped by addition of SDS sample buffer. Afterward, the Src pY418 was measured by anti-pY418 antibody to indicate Src activation.

ERKs in LLC-PK1 cells = assay: Immunostaining assay for active ERK in LLC-PK1 cells; format: cell-based, pig; conditions: pretreated cells exposed to 1 nM ouabain for 60 min
Procedure: as §3
LLC-PK1 cells were pretreated with different concentrations of MB5 for 15 min, exposed to 1 nM ouabain for 60 min, and assayed for active ERKs. A representative set of images is shown. LLC-PK1 cells were pretreated with different concentrations of MB5 for 15 min, exposed to stimuli for either 10 or 3 min, and assayed for active ERKs. A representative set of images is shown.
The data presented in FIGS. 6C-6E show blocking ouabain-induced ERK activation by other antagonists of receptor Na/K-ATPase/Src complex. […] Both control and Tanshinone I-pretreated cells were exposed to ouabain (1 nM) for 1 hour, and processed for immuno-staining of active ERK as in FIG. 6A. A representative set of images are presented from three separate experiments.
LLC-PK1 cells grown on coverslip were serum-starved and treated with MB5 or stimuli for indicated time. […] The signals were detected by a Leica (Wetzlar, Germany) confocal microscope. […]

DU145 tumor xenograft = assay: DU145 xenograft tumors in NOD/SCID mice; format: in vivo; conditions: 20 mg/kg i.p. every day for 3 weeks
Procedure: FIGS. 8A-8C show the MB5 effect on the growth of DU145 tumor xenografts in NOD/SCID mice Viable DU145 cells (5×10^6) were injected to the flank of NOD/SCID mice. After tumor reached 100 mm^3, mice were injected via i.p. with DMSO or MB5 at a dose of 20 mg/Kg. Values are mean±S.E. ** p<0.01 compared with each control.
Animal protocols were approved by the Institutional Animal Care and Use Committee at the University of Toledo Health Science Campus. Tumor xenografts were established by subcutaneous injection of 5×10^6 DU145 cells into two flanks of 6-week-old female NOD/SCID mice (Charles River). When the tumors reached an average volume of 100 mm^3, mice were injected intraperitoneally with DMSO or MB5 (at doses of 20 mg/kg body weight) every day for 3 weeks.

Src in LLC-PK1 cells = assay: Cell-based Src activation assay, LLC-PK1 cells; design: species or system pig; conditions: 20 μM OA
Procedure: as §6
The pig kidney epithelia cells (LLC-PK1 cells) were obtained from ATCC and maintained in Dulbecco's modified Eagle's medium (DMEM) in the presence of 10% FBS, 100 units/ml penicillin, and 100 μg/ml streptomycin in a 5% CO2 humidified incubator. To eliminate the confounding effect of growth factors in the serum, cells were serum starved over night before experiments.
as §5, §2

Compound: CC(C)(O)[C@@H]1CC[C@](C)([C@H]2[C@@H](O)C[C@@]3(C)[C@@H]4C[C@H](O[C@@H]5O[C@H](CO)[C@@H](O)[C@H](O)[C@H]5O)[C@H]5C(C)(C)[C@@H](O[C@@H]6OC[C@@H](O)[C@H](O)[C@H]6O)CC[C@@]56C[C@@]46CC[C@]23C)O1 [astragaloside IV]
identification as antagonist of receptor Na/K-ATPase/Src complex (ouabain antagonist) [1]: identified; also recorded: receptor antagonists | effect on ouabain-induced ERK activation (ERK in LLC-PK1 cells): inhibitory effects

Compound: O=c1c2ccc(O)c(O)c2oc2c(O)c(O)ccc12 [MB7, 3,4,5,6-tetrahydroxyxanthone]
effect on ouabain-induced signal transduction [2]: antagonize

Compound: C[C@@H]1O[C@@H](O[C@H]2C[C@@H](O)[C@]3(CO)[C@H]4[C@H](O)C[C@]5(C)[C@@H](C6=CC(=O)OC6)CC[C@]5(O)[C@@H]4CC[C@]3(O)C2)[C@H](O)[C@H](O)[C@H]1O [ouabain]
Src activation (pY418 / total Src) [3]: activate Src | Src activation (pY418 / total Src) [4]: activate Src | Src activation (pY418 / total Src) [5]: abolished their effects | Src activation (pY418 / total Src) [6]: activated Src | Src activation (pY418 / total Src) [7]: could no longer activate Src | Src activation (pY418 / total Src) [8]: could no longer activate Src

Compound: COc1cc(/C=C/C(=O)O)ccc1O [ferulic acid]
identification as antagonist of receptor Na/K-ATPase/Src complex (ouabain antagonist) [1]: identified; also recorded: receptor antagonists | effect on ouabain-induced ERK activation (ERK in LLC-PK1 cells): inhibitory effects

Compound: O=C(O)[C@H](O)Cc1ccc(O)c(O)c1 [danshensu]
identification as antagonist of receptor Na/K-ATPase/Src complex (ouabain antagonist) [1]: identified | identification as antagonist of receptor Na/K-ATPase/Src complex (ouabain antagonist) ([1]; listed as Tanshensu): receptor antagonists

effect on ouabain-induced Src activation (Src pY418) [9]: antagonizing effects | identification as antagonist of receptor Na/K-ATPase/Src complex (ouabain antagonist) ([1]; listed as MB-5): receptor antagonists
Compound: O=c1c2cccc(O)c2oc2c(O)c(O)ccc12 [MB5, 3,4,5-trihydroxyxanthone]
identification as antagonist of receptor Na/K-ATPase/Src complex (ouabain antagonist) [1]: positively identified as ouabain antagonists | effect on ouabain-induced activation of ERKs (ERKs in LLC-PK1 cells): blocked | effect on ouabain-induced signal transduction [2]: antagonize | growth of DU145 tumor xenograft (DU145 tumor xenograft): inhibited the growth

Compound: Cc1coc2c1C(=O)C(=O)c1c-2ccc2c(C)cccc12 [tanshinone I]
effect on ouabain-induced Src activation (Src pY418) [9]: antagonizing effects | identification as antagonist of receptor Na/K-ATPase/Src complex (ouabain antagonist) [1]: identified | effect on ouabain-induced activation of ERKs (ERKs in LLC-PK1 cells): inhibition | effect on ouabain-induced ERK activation (ERK in LLC-PK1 cells): inhibitory effects

Compound: CCCCCCCC/C=C\CCCCCCCC(=O)O [oleic acid]
Src activation (pY418 / total Src) (Src in LLC-PK1 cells): activated Src

effect on ouabain-induced Src activation (Src pY418) [9]: antagonizing effects | identification as antagonist of receptor Na/K-ATPase/Src complex (ouabain antagonist) [1]: identified
Compound: Cc1coc2c1C(=O)C(=O)c1c-2ccc2c1CCCC2(C)C [tanshinone IIA]

identification as antagonist of receptor Na/K-ATPase/Src complex (ouabain antagonist) [1]: receptor antagonists
Compound: COc1cc(/C=C/C(=O)CC(=O)/C=C/c2ccc(O)c(OC)c2)ccc1O [curcumin]
